Entries after “also recorded” stand apart in the source; their conditions may differ.
System: ras-transformed C3H cells (C3H10T1/2 derived tumors)
Assay: Tumor growth in C3H mice bearing subcutaneous ras-transformed C3H cell tumors, treated with reovirus and/or cisplatin
Assay type: in vivo
Settings: syngeneic tumors measured daily from Day 0, cisplatin 2.5 mg/kg tail vein Days 10, 16, 22, reovirus 5×10^8 PFUs i.v. Days 0, 6, 12, 18
Excerpt: C3H mice (Charles River) were implanted subcutaneously with 1.0×10^6 […] ras-transformed C3H cells (a gift of D. Edwards, University of Calgary) and allowed to develop tumors. The Dearing strain of reovirus serotype 3 used in these studies was propagated in suspension cultures of L cells and purified according to Smith (Smith et al., 1969) with the exception that β-mercaptoethanol (β-ME) was omitted from the extraction buffer. The particle/PFU ratio for purified reovirus was typically 100/1.
The tumor bearing mice were treated with 4 different regimes as described below:
For animals which received reovirus (Series 3-4), 5×10^8 PFUs of reovirus (in 20 μl of saline) were injected intravenously via the tail vein of the animals on Days 0, 6, 12, and 18. […] Cisplatin was injected into the tail vein on Days 10, 16 and 22 at a dose of 2.5 mg per kilogram of body weight. The tumors were measured daily from Day 0 to assess growth rate of the tumors.

SMILES: N.N.[Cl][Pt][Cl] [cisplatin]
- effect on growth rate of the tumors: essentially no inhibitory effects; also recorded: no effect on the tumor; also recorded: growth rate that was essentially the same as untreated tumors

From US8658158B2, “Sensitization of chemotherapeutic agent resistant neoplastic cells with a virus” (Oncolytics Biotech Inc., priority 2001, dated 2014)
